These results are taken from paper PMC8596125, “Self‐Stabilized Supramolecular Assemblies Constructed from PEGylated Dendritic Peptide Conjugate for Augmenting Tumor Retention and Therapy” (Advanced Science, 2021).

The test system of data set [1] is 4T1 cells. The data set is described as follows: In vitro cellular uptake (flow cytometry, CLSM). The data set is classed as cell-based, mouse. The note with it: 1 µg Ppa mL-1, 2, 6 and 24 h. As for the experimental part: CCK-8 assay. 5×103 L02 normal cells per well were seeded in a 96-well plate, and then treated by Ppa and SSAs for 24 h incubation or PDP for 24 h and 48 h incubation.
Cell viability of each group was obtained through the same process.
1.3.9 In vitro cellular uptake
To determine cellular uptake and intracellular distribution of SSAs, 4T1 cells (2×104) were seeded on each glass coverslip to allow attachment, and incubated with Ppa and PDPP for 1 h, 3 h and 6 h, while Ppa was used as a control. After nuclear staining by Hoechst 33258, cells were washed by PBS and then observed under a confocal laser scanning microscopy (CLSM) (excitation and emission wavelengths:
630 nm and 678 nm), and images were captured by Leica Confocal Software.
For quantitative characterization of uptake of SSAs by cells, 4T1 cells were seeded in 6 well plates at 1×10^5 cells per well and incubated for 2 h, 6 h and 24 h. After the spent medium was replaced with fresh one, cells were treated by Ppa and SSAs at an equivalent concentration of 1 μg Ppa mL-1 for pre-specified times. Cells were then washed with PBS twice, harvested, and suspended in 100 μL of PBS for flow cytometer analyses. 20,000 events were collected and Flowjo software was used for generating each histogram.
For TEM, 4T1 cells cultured in 6 cm dishes were incubated with Ppa and SSAs. […]

Data set [2] deals with A549 cells. The data set is described as follows: Cytotoxicity, CCK-8 assay, A549. The data set is classed as cell-based, human. As for the experimental part:
The CCK-8 assay was used to examine the photodynamic therapeutic effect of SSAs on cell viability against three cell lines. 4×103 4T1 cells per well were seeded in a 96-well plate, and then incubated overnight. The cells were treated with different concentrations of Ppa and SSAs at an equivalent Ppa dose. After 24 h incubation, the medium was replaced with fresh one, and the wells were irradiated using a 660 nm laser with 1 J cm−2. After 24 h, the spent media was replaced and the cell viability was assessed using the CCK-8 reagent. The absorbance at […] of each well was recorded on a microplate reader. Untreated cells were served as a control. Results were presented as the average cell viability by following the manufacturer’s instruction. IC50 values were calculated by using nonlinear regression in software Graphpad Prism7. The cytotoxicity of SSAs and Ppa with or without laser against A549 cell line was also measured through the same procedure. […]
Background: Tetrazolium assays rely on reduction of a dye to a coloured formazan, in cell work by metabolically active cells.

The subject of data set [3] is 4T1 breast tumors. The data set can be described thus: In vivo photodynamic therapy, 4T1 breast tumor model. Details: species or system mouse. The following applies: n = 6; for TGI: BALB/c mice with 4T1 tumors. As for the experimental part:
and 14 d post-intravenous injection by a small-animal in vivo fluorescence imaging system (CRi Maestro EX, USA) with excitation at 450 nm and emission at 560 nm.
The mean fluorescence intensity (MFI) was quantitated by CRi Maestro EX 3.0.
Ex vivo fluorescent imaging
After BALB/c mice developed established tumors (100 mm3), Ppa and SSAs (5 mg Ppa kg-1) were intravenously injected into mice via their tail veins (n = 3). The mice were sacrificed at different time points (1 d, 3 d, 5 d, 7 d, 10 d and 14 d) after post-injection, and tumors were excised for ex vivo imaging and semi-quantitative distribution analysis by an in vivo imaging system (IVIS Spectrum In Vivo Imaging System, USA). These tumors were excised for preparing frozen sections. The fixed tumor samples were sectioned into 5 μm-thick slides and incubated with Alex Fluor 594 labeled anti-CD31 antibody (Abcam, UK) and DAPI (Dojindo, Japan). A confocal microscope was used to observe accumulation and retention of Ppa in the […]
1.3.15 In vivo photodynamic therapy
In the 4T1 breast tumor model, when the tumor volume reached about 50 mm3, the mice were divided into 5 groups (n = 6) and injected intravenously with saline, Ppa-1(one treatment), Ppa-2 (two treatments), SSAs-1 (one treatment) and SSAs-2 (two treatments) every four days. The dose per injection was 5 mg Ppa kg-1. After 3 d post-injection, mice were anesthetized with 2% (v/v) isofluorane and tumors were irradiated for 8 min (660 nm, 200 mW cm-2); The mice were monitored daily to identify any signs of toxicity, while the tumor volumetric size and the body weight were measured every 2 d. Tumor volumes were calculated using the following formula: tumor volume = length × width2 × 0.5. […]
For studies with an A549 human non-small cell lung tumor model, nude mice were randomly allocated into three groups (n= 5): saline (control), Ppa, and SSAs when the average tumor volume reached 50 mm3. […] The tumor growth was monitored and the tumor size was measured every 3 d. […]
Untreated cells were set as a control. […] Relative abundance of transcripts was calculated with kallisto. […]

One may read the TGI as the reduction of tumour growth relative to the control group. The low end stands for little slowing of growth, the high end for much slowing of growth. With `C=Cc1c(C)c2cc3nc(c4c5[nH]c(cc6nc(cc1[nH]2)C(C)=C6CC)c(C)c5C(=O)C4)[C@@H](CCC(=O)O)[C@@H]3C` [Ppa, pyropheophorbide a], in data set [1], the Cellular uptake result is given as “better uptake efficiency compared with SSAs”. For the same molecule, the “Cytotoxicity without laser irradiation” value in data set [2] is reported as “much higher cytotoxicity”. In addition, in data set [2] (660 nm laser), the “Cytotoxicity under laser irradiation” value is listed as “strong cytotoxicity”. For the same molecule, the TGI is reported as 11.6% in data set [3] (one treatment (group -1), i.v. 5 mg Ppa kg-1, 660 nm 200 mW cm-2 8 min 3 d post-injection) and 17.1% in data set [3] (two treatments (group -2), i.v. 5 mg Ppa kg-1 per injection, 660 nm 200 mW cm-2 8 min 3 d post-injection). The “Antitumor effect on tumor growth” value in data set [3] (once and twice treatments, 4T1 model) is “no significant antitumor inhibitory effect”.
